Data published in ChEMBL document CHEMBL4184317, “Discovery of Tetrahydroquinoxalines as Bromodomain and Extra-Terminal Domain (BET) Inhibitors with Selectivity for the Second Bromodomain” (J Med Chem, 2018).

How the values were obtained:
PBMC = experiment: cells; conditions: Homo sapiens, read-out: pIC50 (converted)
Description: Antiinflammatory activity in human PBMC assessed as inhibition of LPS-induced MCP1 release preincubated for 30 mins followed by LPS challenge measured after 24 hrs by immunoassay

[1] = buffer, pH 7.4
Description: Chromatographic hydrophobicity index, log D of the compound at pH 7.4 by HPLC method

[2] = target: Bromodomain-containing protein 4 (Homo sapiens, UniProt O60885, Y97A)
[3] = target: Bromodomain-containing protein 4 (Homo sapiens, UniProt O60885, Y390A)

logD [1]: 4.7
IC50 [2]: 200 nM
IC50 [3]: 15800 nM
Structure (SMILES): CC(=O)N1c2ccccc2N(Cc2ccccc2CO)CC1C1CC1 (single isomer, unassigned)
IC50 (PBMC): 1000 nM
